Where a name gives a salt, the structure may show the parent alone.
melting point | SMILES
214.6 to 215.2 °C | Cc1ccc(-c2nc(N)nc3c2nnn3Cc2ccccc2N)o1 (as salt: hydrochloride) [Example 74, 3-(2-aminobenzyl)-7-(5-methyl-2-furyl)-3H-[1,2,3]triazolo[4,5-d]pyrimidine-5-amine hydrochloride]
120.1 to 121 °C | Nc1nc(-c2ccco2)c2nnn(Cc3cccc(CN4C(=O)c5ccccc5C4=O)n3)c2n1 [Example 164, 7-(2-furyl)-3-(6-phthalimidomethyl-2-pyridylmethyl)-3H-[1,2,3]triazolo[4,5-d]pyrimidine-5-amine]
291 to 291.1 °C | Nc1nc(-c2ccco2)c2nnn(CC(=O)O)c2n1 [Example 26, (5-Amino-7-(2-furyl)-3H-[1,2,3]triazolo[4,5-d]pyrimidin-3-yl)acetic acid]
178.7 to 179.3 °C | Cc1ccc(-c2nc(N)nc3c2nnn3Cc2cccc(CNC(=O)OC(C)(C)C)c2)o1 [Example 73, tert-butyl N-(3-(5-amino-7-(5-methyl-2-furyl)-3H-[1,2,3]triazolo[4,5-d]pyrimidine-3-ylmethyl)benzyl)carbamate]
208.1 to 208.2 °C | Nc1nc(-c2ccco2)c2nnn(Cc3cc(F)ccc3F)c2n1 [Example 65, 3-(2,5-difluorobenzyl)-7-(2-furyl)-3H-[1,2,3]triazolo[4,5-d]pyrimidine-5-amine]
308.2 to 308.3 °C | Nc1ccc(F)c(Cn2nnc3c(-c4ccco4)nc(N)nc32)c1 [Example 79, 3-(5-amino-2-fluorobenzyl)-7-(2-furyl)-3H-[1,2,3]triazolo[4,5-d]pyrimidine-5-amine]
259.8 to 259.9 °C | CC(C)(C)OC(=O)Oc1cc(F)c(Cn2nnc3c(-c4ccco4)nc(N)nc32)c(F)c1 [Example 148, tert-butyl (4-(5-amino-7-(2-furyl)-3H-[1,2,3]triazolo[4,5-d]pyrimidine-3-ylmethyl)-3,5-difluorophenyl)carbonate]
263.8 to 264 °C | Nc1nc(-c2ccco2)c2nnn(CC(=O)Nc3ccccn3)c2n1 [Example 52, (5-amino-7-(2-furyl)-3H-[1,2,3]triazolo[4,5-d]pyrimidin-3-yl)-N-(2-pyridyl)acetamide]
292.2 to 292.3 °C | Nc1nc(-c2ccco2)c2nnn(CC(=O)Nc3ccccc3)c2n1 [Example 54, (5-amino-7-(2-furyl)-3H-[1,2,3]triazolo[4,5-d]pyrimidin-3-yl)-N-phenylacetamide]
229.3 to 229.4 °C | Cc1ccc(-c2nc(N)nc3c2nnn3Cc2cccc(Cl)n2)o1 [Example 81, 3-(6-chloro-2-pyridylmethyl)-7-(5-methyl-2-furyl)-3H-[1,2,3]triazolo[4,5-d]pyrimidine-5-amine]
288.1 to 288.2 °C | Cc1cnc(Cn2nnc3c(-c4ccco4)nc(N)nc32)cn1 [Example 106, 7-(2-furyl)-3-(5-methyl-2-pyrazinylmethyl)-3H-[1,2,3]triazolo[4,5-d]pyrimidine-5-amine]
285.7 to 285.9 °C | Cc1nc(Cn2nnc3c(-c4ccco4)nc(N)nc32)cs1 [Example 100, 7-(2-furyl)-3-(2-methylthiazol-4-ylmethyl)-3H-[1,2,3]triazolo[4,5-d]pyrimidine-5-amine]
268.5 to 269.1 °C | Cc1ccc(Cn2nnc3c(-c4ccco4)nc(N)nc32)cc1N [Example 90, 3-(3-amino-4-methylbenzyl)-7-(2-furyl)-3H-[1,2,3]triazolo[4,5-d]pyrimidine-5-amine]
204 to 204.2 °C | Nc1nc(-c2ccco2)c2nnn(Cc3cc(F)cc(F)c3F)c2n1 [Example 168, 7-(2-furyl)-3-(2,3,5-trifluorobenzyl)-3H-[1,2,3]triazolo[4,5-d]pyrimidine-5-amine]
242 to 242.1 °C | Cc1cnc(-c2nc(N)nc3c2nnn3Cc2ccccc2F)s1 [Example 38, 3-(2-fluorobenzyl)-7-(5-methyl-2-thiazolyl)-3H-[1,2,3]triazolo[4,5-d]pyrimidine-5-amine]
289.1 to 289.3 °C | Nc1nc(-c2ccco2)c2nnn(Cc3cc4ccccc4[nH]3)c2n1 [Example 207, 3-(2-indolylmethyl)-7-(2-furyl)-3H-[1,2,3]triazolo[4,5-d]pyrimidine-5-amine]
215.8 to 216.9 °C | Nc1nc(-c2ccco2)c2nnn(Cc3ccsc3)c2n1 [Example 179, 7-(2-furyl)-3-(3-thienylmethyl)-3H-[1,2,3]triazolo[4,5-d]pyrimidine-5-amine]
266.5 to 266.7 °C | Nc1nc(-c2ccco2)c2nnn(Cc3ccc(F)c([N+](=O)[O-])c3)c2n1 [Example 129, 3-(4-fluoro-3-nitrobenzyl)-7-(2-furyl)-3H-[1,2,3]triazolo[4,5-d]pyrimidine-5-amine]
219.3 °C | Nc1nc(-c2ccco2)c2nnn(Cc3cc(F)ccc3N)c2n1 [Example 171, 3-(2-amino-5-fluorobenzyl)-7-(2-furyl)-3H-[1,2,3]triazolo[4,5-d]pyrimidine-5-amine]
251.2 to 251.5 °C | Nc1cccc(Cn2nnc3c(-c4ccccc4)nc(N)nc32)c1 [Example 151, 3-(3-aminobenzyl)-7-phenyl-3H-[1,2,3]triazolo[4,5-d]pyrimidine-5-amine]
219.7 to 220.4 °C | Cc1ccc(-c2nc(N)nc3c2nnn3Cc2ccc(N)cc2)o1 [Example 184, 3-(4-aminobenzyl)-7-(5-methyl-2-furyl)-3H-[1,2,3]triazolo[4,5-d]pyrimidine-5-amine]
279.9 to 280.3 °C | NCc1cccc(Cn2nnc3c(-c4ccn[nH]4)nc(N)nc32)c1 [Example 101, 3-(3-Aminomethylbenzyl)-7-(1H-pyrazol-3-yl)-3H-[1,2,3]triazolo[4,5-d]pyrimidine-5-amine]
257.1 to 257.3 °C | Nc1nc(-c2ccco2)c2nnn(CC(=O)c3ccccc3)c2n1 [Example 211, 2-(5-Amino-7-(2-furyl)-3H-[1,2,3]triazolo[4,5-d]pyrimidin-3-yl)-1-phenylethanone]
248.1 to 249 °C | Cc1ccc(-c2nc(N)nc3c2nnn3Cc2ccc([N+](=O)[O-])cc2)o1 [Example 268, 7-(5-methyl-2-furyl)-3-(4-nitrobenzyl)-3H-[1,2,3]triazolo[4,5-d]pyrimidine-5-amine]
298.9 to 299 °C | Nc1nc(-c2ccco2)c2nnn(Cc3ccc4cc[nH]c4c3)c2n1 [Example 152, 7-(2-Furyl)-3-(6-indolylmethyl)-3H-[1,2,3]triazolo[4,5-d]pyrimidine-5-amine]
200.8 to 218.9 °C | Cc1cccc(Cn2nnc3c(-c4ccco4)nc(N)nc32)n1 [Example 37, 7-(2-furyl)-3-(6-methyl-2-pyridylmethyl)-3H-[1,2,3]triazolo[4,5-d]pyrimidine-5-amine]
172.7 to 173.2 °C | CCc1cc(Cn2nnc3c(-c4ccco4)nc(N)nc32)ccn1 [Example 136, 3-(2-ethyl-4-pyridylmethyl)-7-(2-furyl)-3H-[1,2,3]triazolo[4,5-d]pyrimidine-5-amine]
> 200 °C (dec.) | Nc1nc(-c2ccco2)c2nnn(Cc3ccc(N)c(F)c3)c2n1 [Example 147, 3-(4-amino-3-fluorobenzyl)-7-(2-furyl)-3H-[1,2,3]triazolo[4,5-d]pyrimidine-5-amine]

Reference: patent US7589097B2, “Triazol[4,5-d] pyramidine derivatives and their use as purinergic receptor antagonists” (Vernalis Research Limited, priority 2001, dated 2009)
